The structures appear in SMILES notation.

For test [1], the target named is Platelet-derived growth factor receptor beta (Homo sapiens) (UniProt P09619). The test can be described thus: Inhibition of PDGFRB (unknown origin) at 1 uM by Ambit Kinomescan binding assay relative to control.
The target of test [2] is Fibroblast growth factor receptor 3 (Homo sapiens) (UniProt P22607). The test can be described thus: Inhibition of FGFR3 (unknown origin) at 1 uM by Ambit Kinomescan binding assay relative to control; values are per cent of control.
Test [3] concerns the target Cyclin-dependent kinase 3 (Homo sapiens) (UniProt Q00526). Nature of the test: Inhibition of CDK3 (unknown origin) at 1 uM by Ambit Kinomescan binding assay relative to control; values are per cent of control.
Test [4] is described as follows: Inhibition of p70S6K Lys2 labeling site in human A-375 cells at 0.5 uM by KiNativ Profiling analysis relative to control. Conditions: condition cancer.
Test [5] addresses Serine/threonine-protein kinase 24 (Homo sapiens) (UniProt Q9Y6E0). The test can be described thus: Inhibition of MST3 Lys2 labeling site harbouring IHRDIKAANVLLSEHGEVK in human A-375 cells at 5 uM by KiNativ Profiling analysis relative to control. Format: cell-based.
For test [6], the target named is Mitogen-activated protein kinase kinase kinase 11 (Homo sapiens) (UniProt Q16584). Nature of the test: Inhibition of MLK3 Lys2 labeling site in human A-375 cells at 0.05 uM by KiNativ Profiling analysis relative to control. Format: cell-based.
Test [7] deals with Calcium/calmodulin-dependent protein kinase type II subunit delta (Homo sapiens) (UniProt Q13557). Nature of the test: Inhibition of CAMK2D (unknown origin) at 1 uM by Ambit Kinomescan binding assay relative to control; values are per cent of control.
The target of test [8] is T1, Serine/threonine-protein kinase D1 (Homo sapiens) (UniProt Q15139).
T1 sequence (whole entry): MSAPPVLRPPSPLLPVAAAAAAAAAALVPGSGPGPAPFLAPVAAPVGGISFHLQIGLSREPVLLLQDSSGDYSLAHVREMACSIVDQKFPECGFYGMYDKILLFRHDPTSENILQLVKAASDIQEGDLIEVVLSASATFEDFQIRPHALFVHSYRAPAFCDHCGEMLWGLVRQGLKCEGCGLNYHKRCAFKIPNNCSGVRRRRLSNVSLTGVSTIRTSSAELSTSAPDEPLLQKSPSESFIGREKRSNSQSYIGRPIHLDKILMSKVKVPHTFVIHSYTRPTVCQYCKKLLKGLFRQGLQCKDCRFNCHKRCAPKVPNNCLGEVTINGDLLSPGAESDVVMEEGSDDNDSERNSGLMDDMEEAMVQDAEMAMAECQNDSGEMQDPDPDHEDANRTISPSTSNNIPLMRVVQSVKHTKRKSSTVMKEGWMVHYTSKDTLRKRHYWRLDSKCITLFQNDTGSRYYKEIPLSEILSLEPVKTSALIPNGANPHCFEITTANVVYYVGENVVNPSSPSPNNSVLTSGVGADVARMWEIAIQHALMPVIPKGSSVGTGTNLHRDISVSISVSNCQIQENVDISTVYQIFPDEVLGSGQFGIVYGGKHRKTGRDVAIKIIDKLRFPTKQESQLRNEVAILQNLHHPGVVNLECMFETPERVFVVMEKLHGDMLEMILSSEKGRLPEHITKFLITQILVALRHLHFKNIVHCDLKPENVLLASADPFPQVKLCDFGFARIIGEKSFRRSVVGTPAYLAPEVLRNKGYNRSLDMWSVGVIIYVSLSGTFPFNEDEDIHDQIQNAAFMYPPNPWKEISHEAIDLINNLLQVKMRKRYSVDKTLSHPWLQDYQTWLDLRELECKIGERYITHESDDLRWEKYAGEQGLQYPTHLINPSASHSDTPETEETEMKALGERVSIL
Nature of the test: Inhibition of PKD1 Lys1 labeling site in human A-375 cells at 5 uM by KiNativ Profiling analysis relative to control. Format: cell-based.

Test [9] deals with Serine/threonine-protein kinase PAK 6 (Homo sapiens) (UniProt Q9NQU5). Nature of the test: Inhibition of PAK6 (unknown origin) at 1 uM by Ambit Kinomescan binding assay relative to control; values are per cent of control.
In another test the test system is RAW. The test can be described thus: Inhibition of LPS induced JNK1/2 phosphorylation in mouse RAW cells preincubated for 1 hr followed by LPS stimulation and measured after 30 mins by Western blot analysis. Conditions: dose 0.01-10 µM. Format: functional, cell-based. (In general: In western blotting, separated proteins are transferred to a membrane and probed.)

The target of test [10] is Ribosomal protein S6 kinase alpha-1 (Homo sapiens) (UniProt Q15418). Nature of the test: Inhibition of RSK1 Domain 1 ACT labeling site harbouring LTDFGLSKEAIDHEKK in human Huh-7 cells at 1 uM by KiNativ Profiling analysis relative to control. Format: cell-based.
Test [11] addresses Myosin light chain kinase 2, skeletal/cardiac muscle (Homo sapiens) (UniProt Q9H1R3). The test can be described thus: Inhibition of MYLK2 (unknown origin) at 10 uM by Ambit Kinomescan binding assay relative to control.
Test [12] deals with Serine/threonine-protein kinase N2 (Homo sapiens) (UniProt Q16513). Nature of the test: Inhibition of PKN2 Lys2 labeling site in human A-375 cells at 0.5 uM by KiNativ Profiling analysis relative to control. Format: cell-based.
The target in test [13] is Tyrosine-protein kinase Lyn (Homo sapiens, UniProt P07948). The test can be described thus: Inhibition of LYN (unknown origin) at 10 uM by Ambit Kinomescan binding assay relative to control; values are per cent of control.
Test [14] addresses Serine/threonine-protein kinase WNK3 (Homo sapiens) (UniProt Q9BYP7). The test can be described thus: Inhibition of Wnk3 Lys2 labeling site in human Huh-7 cells at 1 uM by KiNativ Profiling analysis relative to control. Format: cell-based.
Test [15] has as its target Cyclin-dependent kinase 12 (Homo sapiens) (UniProt Q9NYV4). The test can be described thus: Inhibition of CRK7 Lys2 labeling site in human Huh-7 cell lysate at 1 uM by KiNativ Profiling analysis relative to control. Format: subcellular.
The target in test [16] is Microtubule-associated serine/threonine-protein kinase 2 (Homo sapiens) (UniProt Q6P0Q8). The test can be described thus: Inhibition of MAST2 Lys2 labeling site harbouring DLKPDNLLITSMGHIK in human Huh-7 cell lysate at 1 uM by KiNativ Profiling analysis relative to control. Format: subcellular.
Test [17] addresses Serine/threonine-protein kinase 16 (Homo sapiens) (UniProt O75716). The test can be described thus: Inhibition of MPSK1 Lys2 labeling site in human Huh-7 cell lysate at 1 uM by KiNativ Profiling analysis relative to control. Format: subcellular.
The target of test [18] is MAP/microtubule affinity-regulating kinase 3 (Homo sapiens) (UniProt P27448). Nature of the test: Inhibition of MARK3 Lys2 labeling site in human Huh-7 cells at 1 uM by KiNativ Profiling analysis relative to control. Format: cell-based.
Test [19] deals with Calcium/calmodulin-dependent protein kinase type II subunit beta (Homo sapiens) (UniProt Q13554). The test can be described thus: Inhibition of CaMK2b Lys2 labeling site in human Huh-7 cells at 1 uM by KiNativ Profiling analysis relative to control. Format: cell-based.

Chain of Tyrosine-protein kinase Lyn (P07948 2-512 limits assumed): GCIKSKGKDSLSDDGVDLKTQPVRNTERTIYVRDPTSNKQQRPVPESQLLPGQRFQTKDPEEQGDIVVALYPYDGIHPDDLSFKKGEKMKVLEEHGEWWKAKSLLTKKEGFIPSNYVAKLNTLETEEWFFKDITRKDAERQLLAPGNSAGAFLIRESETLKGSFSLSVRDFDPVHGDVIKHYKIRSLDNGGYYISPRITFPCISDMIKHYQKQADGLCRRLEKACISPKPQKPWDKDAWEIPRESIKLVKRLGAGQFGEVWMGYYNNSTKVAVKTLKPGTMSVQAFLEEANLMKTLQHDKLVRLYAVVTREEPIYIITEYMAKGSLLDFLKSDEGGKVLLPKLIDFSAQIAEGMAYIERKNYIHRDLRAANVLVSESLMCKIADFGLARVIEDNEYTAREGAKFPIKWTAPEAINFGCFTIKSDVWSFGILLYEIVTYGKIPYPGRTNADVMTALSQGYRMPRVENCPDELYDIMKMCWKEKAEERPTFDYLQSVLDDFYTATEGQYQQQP
Chain of Myosin light chain kinase 2, skeletal/cardiac muscle (Homo sapiens) (Q9H1R3 whole entry): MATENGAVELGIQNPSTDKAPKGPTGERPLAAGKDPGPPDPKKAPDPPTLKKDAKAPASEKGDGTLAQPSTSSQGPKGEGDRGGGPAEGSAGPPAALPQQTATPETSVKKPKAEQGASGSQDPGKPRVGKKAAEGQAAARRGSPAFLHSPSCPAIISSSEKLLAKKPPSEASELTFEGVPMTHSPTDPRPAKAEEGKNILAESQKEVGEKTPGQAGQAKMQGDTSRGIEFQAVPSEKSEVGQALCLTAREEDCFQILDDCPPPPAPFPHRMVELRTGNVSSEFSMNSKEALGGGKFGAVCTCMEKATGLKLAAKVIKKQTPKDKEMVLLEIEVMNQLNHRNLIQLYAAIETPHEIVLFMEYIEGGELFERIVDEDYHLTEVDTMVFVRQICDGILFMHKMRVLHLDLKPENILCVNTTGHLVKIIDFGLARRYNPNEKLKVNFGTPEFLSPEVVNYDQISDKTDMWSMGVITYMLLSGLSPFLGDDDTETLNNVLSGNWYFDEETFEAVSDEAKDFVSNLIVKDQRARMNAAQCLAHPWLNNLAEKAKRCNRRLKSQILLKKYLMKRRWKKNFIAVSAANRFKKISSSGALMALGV
Chain of Calcium/calmodulin-dependent protein kinase type II subunit delta (Homo sapiens) (Q13557 whole entry): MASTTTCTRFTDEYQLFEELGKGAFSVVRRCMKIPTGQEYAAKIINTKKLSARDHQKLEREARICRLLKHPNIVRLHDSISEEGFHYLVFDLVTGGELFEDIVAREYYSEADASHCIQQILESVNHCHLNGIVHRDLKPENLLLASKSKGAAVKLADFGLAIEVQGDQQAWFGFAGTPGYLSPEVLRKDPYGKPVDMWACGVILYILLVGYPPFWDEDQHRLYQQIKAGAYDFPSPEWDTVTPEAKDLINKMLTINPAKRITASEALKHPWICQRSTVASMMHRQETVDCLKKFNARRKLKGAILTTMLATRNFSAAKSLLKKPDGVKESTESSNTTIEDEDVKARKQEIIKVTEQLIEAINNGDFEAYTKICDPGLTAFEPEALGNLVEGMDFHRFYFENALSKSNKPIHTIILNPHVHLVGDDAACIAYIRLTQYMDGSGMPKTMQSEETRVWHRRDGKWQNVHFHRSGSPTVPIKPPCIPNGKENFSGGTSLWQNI
Chain of Cyclin-dependent kinase 12 (Homo sapiens) (Q9NYV4 whole entry, looked up): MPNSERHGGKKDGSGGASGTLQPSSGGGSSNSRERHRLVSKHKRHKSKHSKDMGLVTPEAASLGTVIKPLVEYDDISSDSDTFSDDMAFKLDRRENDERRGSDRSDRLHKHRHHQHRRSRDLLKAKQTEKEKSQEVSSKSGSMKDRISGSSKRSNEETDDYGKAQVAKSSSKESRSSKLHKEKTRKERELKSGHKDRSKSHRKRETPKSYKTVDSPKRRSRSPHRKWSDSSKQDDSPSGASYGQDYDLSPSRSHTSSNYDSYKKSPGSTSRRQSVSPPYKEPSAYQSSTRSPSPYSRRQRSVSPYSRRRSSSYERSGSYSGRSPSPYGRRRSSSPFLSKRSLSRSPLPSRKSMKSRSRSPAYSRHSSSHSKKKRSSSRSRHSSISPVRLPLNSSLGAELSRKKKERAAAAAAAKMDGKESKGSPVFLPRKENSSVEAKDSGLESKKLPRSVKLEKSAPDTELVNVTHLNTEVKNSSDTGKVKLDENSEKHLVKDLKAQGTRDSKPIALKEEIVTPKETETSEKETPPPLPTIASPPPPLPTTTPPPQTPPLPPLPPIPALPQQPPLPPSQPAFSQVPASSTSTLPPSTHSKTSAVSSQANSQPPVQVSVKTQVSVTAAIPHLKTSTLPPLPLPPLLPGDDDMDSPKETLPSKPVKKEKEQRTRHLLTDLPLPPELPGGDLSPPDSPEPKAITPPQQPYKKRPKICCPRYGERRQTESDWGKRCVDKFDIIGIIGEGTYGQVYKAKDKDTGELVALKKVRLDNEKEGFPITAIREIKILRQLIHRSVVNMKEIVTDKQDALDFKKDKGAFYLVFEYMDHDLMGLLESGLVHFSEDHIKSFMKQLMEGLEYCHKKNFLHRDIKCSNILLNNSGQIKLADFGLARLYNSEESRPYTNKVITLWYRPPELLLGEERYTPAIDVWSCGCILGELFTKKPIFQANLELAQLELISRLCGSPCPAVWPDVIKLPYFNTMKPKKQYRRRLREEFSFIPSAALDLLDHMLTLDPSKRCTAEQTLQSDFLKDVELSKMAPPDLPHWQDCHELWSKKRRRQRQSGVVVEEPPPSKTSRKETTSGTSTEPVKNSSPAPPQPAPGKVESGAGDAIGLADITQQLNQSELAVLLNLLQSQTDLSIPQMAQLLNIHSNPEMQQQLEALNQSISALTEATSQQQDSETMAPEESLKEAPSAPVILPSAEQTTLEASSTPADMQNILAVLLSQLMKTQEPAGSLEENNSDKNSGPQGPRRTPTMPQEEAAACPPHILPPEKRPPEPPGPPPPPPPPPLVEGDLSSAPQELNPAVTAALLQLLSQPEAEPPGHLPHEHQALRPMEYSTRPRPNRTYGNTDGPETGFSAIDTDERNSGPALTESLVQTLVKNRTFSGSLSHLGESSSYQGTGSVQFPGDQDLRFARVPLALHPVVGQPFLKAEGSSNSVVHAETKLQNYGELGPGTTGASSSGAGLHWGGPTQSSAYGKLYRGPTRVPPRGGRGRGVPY
Chain of Cyclin-dependent kinase 3 (Homo sapiens) (Q00526 whole entry, looked up): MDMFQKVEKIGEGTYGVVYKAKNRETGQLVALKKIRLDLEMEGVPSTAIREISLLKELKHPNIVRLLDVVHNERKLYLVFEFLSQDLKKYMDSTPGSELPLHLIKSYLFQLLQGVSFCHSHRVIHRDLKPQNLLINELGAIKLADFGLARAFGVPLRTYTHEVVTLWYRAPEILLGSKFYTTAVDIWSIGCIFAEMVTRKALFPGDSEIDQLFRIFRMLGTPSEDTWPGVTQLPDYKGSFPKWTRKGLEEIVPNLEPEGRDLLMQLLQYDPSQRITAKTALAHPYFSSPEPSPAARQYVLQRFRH
Chain of Platelet-derived growth factor receptor beta (Homo sapiens) (P09619 whole entry): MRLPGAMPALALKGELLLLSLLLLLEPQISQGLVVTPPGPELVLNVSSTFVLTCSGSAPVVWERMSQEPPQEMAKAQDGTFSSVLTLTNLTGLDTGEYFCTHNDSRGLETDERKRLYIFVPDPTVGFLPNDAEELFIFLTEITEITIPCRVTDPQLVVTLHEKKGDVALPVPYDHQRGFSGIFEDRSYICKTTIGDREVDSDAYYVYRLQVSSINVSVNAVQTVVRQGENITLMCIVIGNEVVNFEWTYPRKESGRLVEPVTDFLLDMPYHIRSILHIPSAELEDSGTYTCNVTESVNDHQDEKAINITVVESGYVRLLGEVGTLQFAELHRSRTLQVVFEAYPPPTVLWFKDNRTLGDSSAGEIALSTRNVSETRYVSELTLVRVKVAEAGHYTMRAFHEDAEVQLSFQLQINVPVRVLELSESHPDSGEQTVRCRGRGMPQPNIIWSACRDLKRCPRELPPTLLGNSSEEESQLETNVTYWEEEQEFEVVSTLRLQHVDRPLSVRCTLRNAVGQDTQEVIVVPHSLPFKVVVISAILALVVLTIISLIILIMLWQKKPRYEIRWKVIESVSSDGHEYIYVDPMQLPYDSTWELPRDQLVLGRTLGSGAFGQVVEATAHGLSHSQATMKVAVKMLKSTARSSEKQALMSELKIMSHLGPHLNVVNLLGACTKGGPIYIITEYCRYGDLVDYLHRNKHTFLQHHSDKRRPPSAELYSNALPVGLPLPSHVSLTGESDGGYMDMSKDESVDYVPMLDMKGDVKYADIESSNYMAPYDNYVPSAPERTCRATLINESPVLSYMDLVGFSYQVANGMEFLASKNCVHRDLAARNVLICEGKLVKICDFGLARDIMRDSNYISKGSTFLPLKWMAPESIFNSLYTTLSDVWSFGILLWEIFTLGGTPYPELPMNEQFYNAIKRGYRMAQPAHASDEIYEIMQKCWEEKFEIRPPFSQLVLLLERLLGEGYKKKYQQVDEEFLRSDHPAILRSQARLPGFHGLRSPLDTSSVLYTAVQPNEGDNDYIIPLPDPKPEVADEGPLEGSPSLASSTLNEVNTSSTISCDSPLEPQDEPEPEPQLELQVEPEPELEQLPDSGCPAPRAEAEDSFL
Chain of Serine/threonine-protein kinase 16 (Homo sapiens) (O75716 whole entry): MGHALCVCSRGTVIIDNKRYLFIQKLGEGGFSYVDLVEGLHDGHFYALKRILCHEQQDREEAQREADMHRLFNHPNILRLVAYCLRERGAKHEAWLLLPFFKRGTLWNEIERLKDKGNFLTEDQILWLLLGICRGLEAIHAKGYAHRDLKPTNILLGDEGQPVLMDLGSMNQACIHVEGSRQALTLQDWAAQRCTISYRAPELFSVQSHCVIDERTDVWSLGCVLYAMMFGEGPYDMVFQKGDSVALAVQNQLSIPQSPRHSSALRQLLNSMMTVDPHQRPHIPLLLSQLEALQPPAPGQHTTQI

The term inhibition denotes the drop in the measured response relative to a control, in per cent. One may read the residual activity as the share of the control activity or signal that is left under treatment. As to `CCN1CCN(Cc2ccc(NC(=O)c3ccc(C)c(/C=C/c4cnc5[nH]ccc5c4OC)c3)cc2C(F)(F)F)CC1`, the inhibition in test [1] is 0.1%; in test [5] it was -0.1%; in test [6] it was 11.4%; in [8] it was -9.9%. The figures for the residual activity in [2], in test [7] and in test [9] were 13%, 100% and 100%, respectively. The % of control in [3] amounted to 100%. Further, in test [4], the inhibition at 0.5 µM is -32.9%.
Consider `CCN1CCN(Cc2ccc(NC(=O)c3ccc(C)c(Oc4ccnc5[nH]ccc45)c3)cc2C(F)(F)F)CC1`, for which the inhibition entry is “Dose-Dependent Effect” in the test on RAW, 6.9% in [10], 8.4% in [11] and -5.6% in [12]. In test [13], the percent of control was 0.75%.
Regarding `CNc1cc(Oc2cc(C(=O)Nc3cc(N4CCN(C)CC4)cc(C(F)(F)F)c3)ccc2C)ncn1`, the inhibition in test [14] is 15.3%; in test [15], -8.3%; in test [16] it was 7.2%; in test [17], 4.6%; in test [18] it was 11.3%; in test [19] it was 20.3%.

The values are drawn from ChEMBL document CHEMBL5696442, “Discovery of type II inhibitors of TGFβ-activated kinase 1 (TAK1) and mitogen-activated protein kinase kinase kinase kinase 2 (MAP4K2)” (J Med Chem, 2015).
